Data published in patent US10479784B2, “Substituted pyrazin-2-amines as inhibitors of ATR kinase” (Vertex Pharmaceuticals Incorporated, priority 2008, dated 2019).
Read-outs that look alike come from different tables or passages of the source.

Tests used:
full-length ATR = full-length ATR (Homo sapiens (Human), UniProt Q13535); assay: ATR Inhibition Assay (radioactive-phosphate incorporation); type: biochemical
Procedure, shortened: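 Full-length human ATR (5 nM) was assayed at 25 °C in 50 mM Tris/HCl pH 7.5, 10 mM MgCl2, 1 mM DTT, with 10 μM [γ-33P]ATP and 800 μM peptide, after 10-min compound preincubation. Reactions were stopped after 24 h, captured on phosphocellulose and counted; Ki(app) came from non-linear regression of initial rates.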

intracellular ATR = intracellular ATR (Homo sapiens (Human), UniProt Q13535); assay: Cellular ATR Inhibition Assay (H2AX phosphorylation in hydroxyurea treated HT29 cells); type: cell-based; settings: 2 mM hydroxyurea, phosphorylated H2AX-positive nuclei
Procedure: Compounds can be screened for their ability to inhibit intracellular ATR using an immunofluorescence microscopy assay to detect phosphorylation of the ATR substrate histone H2AX in hydroxyurea treated cells. HT29 cells are plated at 14,000 cells per well in 96-well black imaging plates (BD 353219) in McCoy's 5 A media (Sigma M8403) supplemented with 10% foetal bovine serum (JRH Biosciences 12003), Penicillin/Streptomycin solution diluted 1:100 (Sigma P7539), and 2 mM L-glutamine (Sigma G7513), and allowed to adhere overnight at 37° C. in 5% CO2. Compounds are then added to the cell media from a final concentration of 25 μM in 3-fold serial dilutions and the cells are incubated at 37° C. in 5% CO2. After 15 min, hydroxyurea (Sigma H8627) is added to a final concentration of 2 mM.
After 45 min of treatment with hydroxyurea, the cells are washed in PBS, fixed for 10 min in 4% formaldehyde diluted in PBS (Polysciences Inc 18814), washed in 0.2% Tween-20 in PBS (wash buffer), and permeabilised for 10 min in 0.5% Triton X-100 in PBS, all at room temperature. The cells are then washed once in wash buffer and blocked for 30 min at room temperature in 10% goat serum (Sigma G9023) diluted in wash buffer (block buffer). […]
Cells are imaged for Alexa Fluor 488 and Hoechst intensity using the BD Pathway 855 Bioimager and Attovision software (BD Biosciences, Version 1.6/855) to quantify phosphorylated H2AX Ser139 and DNA staining, respectively. The percentage of phosphorylated H2AX-positive nuclei in a montage of 9 images at 20× magnification is then calculated for each well using BD Image Data Explorer software (BD Biosciences Version 2.2.15). […] The percentage of H2AX positive nuclei is finally plotted against concentration for each compound and IC50s for intracellular ATR inhibition are determined using Prism software(GraphPad Prism version 3.0cx for Macintosh, GraphPad Software, San Diego Calif., USA).

[1] = tested on: HCT116 colorectal cancer cells; assay: Cisplatin Sensitization Assay (96 h MTS cell viability); type: cell-based; settings: concentration of compound required to reduce the IC50 of Cisplatin alone by at least 3-fold
Procedure: (§1) Compounds were screened for their ability to sensitize HCT116 colorectal cancer cells to Cisplatin using a 96 h cell viability (MTS) assay. […] Compounds and Cisplatin were then both added simultaneously to the cell media in 2-fold serial dilutions from a top final concentration of 10 μM as a full matrix of concentrations in a final cell volume of 200 μl, and the cells were then incubated at 37° C. in 5% CO2. After 96 h, 40 μl of MTS reagent (Promega G358a) was added to each well and the cells were incubated for 1 h at 37° C. in 5% CO2.

[2] = tested on: HCT116 colorectal cancer cells; assay: HCT116 cell viability (MTS), compound alone; type: cell-based; settings: Homo sapiens, HCT-116, 96 h, read-out: HTC116 (MTS) IC50
Procedure: as §1

[3] = 5 nM full-length ATR, 10 μM ATP, Ki(app), read-out: ATR Inhibition Assay Ki

Sequence of full-length ATR (Q13535 whole entry): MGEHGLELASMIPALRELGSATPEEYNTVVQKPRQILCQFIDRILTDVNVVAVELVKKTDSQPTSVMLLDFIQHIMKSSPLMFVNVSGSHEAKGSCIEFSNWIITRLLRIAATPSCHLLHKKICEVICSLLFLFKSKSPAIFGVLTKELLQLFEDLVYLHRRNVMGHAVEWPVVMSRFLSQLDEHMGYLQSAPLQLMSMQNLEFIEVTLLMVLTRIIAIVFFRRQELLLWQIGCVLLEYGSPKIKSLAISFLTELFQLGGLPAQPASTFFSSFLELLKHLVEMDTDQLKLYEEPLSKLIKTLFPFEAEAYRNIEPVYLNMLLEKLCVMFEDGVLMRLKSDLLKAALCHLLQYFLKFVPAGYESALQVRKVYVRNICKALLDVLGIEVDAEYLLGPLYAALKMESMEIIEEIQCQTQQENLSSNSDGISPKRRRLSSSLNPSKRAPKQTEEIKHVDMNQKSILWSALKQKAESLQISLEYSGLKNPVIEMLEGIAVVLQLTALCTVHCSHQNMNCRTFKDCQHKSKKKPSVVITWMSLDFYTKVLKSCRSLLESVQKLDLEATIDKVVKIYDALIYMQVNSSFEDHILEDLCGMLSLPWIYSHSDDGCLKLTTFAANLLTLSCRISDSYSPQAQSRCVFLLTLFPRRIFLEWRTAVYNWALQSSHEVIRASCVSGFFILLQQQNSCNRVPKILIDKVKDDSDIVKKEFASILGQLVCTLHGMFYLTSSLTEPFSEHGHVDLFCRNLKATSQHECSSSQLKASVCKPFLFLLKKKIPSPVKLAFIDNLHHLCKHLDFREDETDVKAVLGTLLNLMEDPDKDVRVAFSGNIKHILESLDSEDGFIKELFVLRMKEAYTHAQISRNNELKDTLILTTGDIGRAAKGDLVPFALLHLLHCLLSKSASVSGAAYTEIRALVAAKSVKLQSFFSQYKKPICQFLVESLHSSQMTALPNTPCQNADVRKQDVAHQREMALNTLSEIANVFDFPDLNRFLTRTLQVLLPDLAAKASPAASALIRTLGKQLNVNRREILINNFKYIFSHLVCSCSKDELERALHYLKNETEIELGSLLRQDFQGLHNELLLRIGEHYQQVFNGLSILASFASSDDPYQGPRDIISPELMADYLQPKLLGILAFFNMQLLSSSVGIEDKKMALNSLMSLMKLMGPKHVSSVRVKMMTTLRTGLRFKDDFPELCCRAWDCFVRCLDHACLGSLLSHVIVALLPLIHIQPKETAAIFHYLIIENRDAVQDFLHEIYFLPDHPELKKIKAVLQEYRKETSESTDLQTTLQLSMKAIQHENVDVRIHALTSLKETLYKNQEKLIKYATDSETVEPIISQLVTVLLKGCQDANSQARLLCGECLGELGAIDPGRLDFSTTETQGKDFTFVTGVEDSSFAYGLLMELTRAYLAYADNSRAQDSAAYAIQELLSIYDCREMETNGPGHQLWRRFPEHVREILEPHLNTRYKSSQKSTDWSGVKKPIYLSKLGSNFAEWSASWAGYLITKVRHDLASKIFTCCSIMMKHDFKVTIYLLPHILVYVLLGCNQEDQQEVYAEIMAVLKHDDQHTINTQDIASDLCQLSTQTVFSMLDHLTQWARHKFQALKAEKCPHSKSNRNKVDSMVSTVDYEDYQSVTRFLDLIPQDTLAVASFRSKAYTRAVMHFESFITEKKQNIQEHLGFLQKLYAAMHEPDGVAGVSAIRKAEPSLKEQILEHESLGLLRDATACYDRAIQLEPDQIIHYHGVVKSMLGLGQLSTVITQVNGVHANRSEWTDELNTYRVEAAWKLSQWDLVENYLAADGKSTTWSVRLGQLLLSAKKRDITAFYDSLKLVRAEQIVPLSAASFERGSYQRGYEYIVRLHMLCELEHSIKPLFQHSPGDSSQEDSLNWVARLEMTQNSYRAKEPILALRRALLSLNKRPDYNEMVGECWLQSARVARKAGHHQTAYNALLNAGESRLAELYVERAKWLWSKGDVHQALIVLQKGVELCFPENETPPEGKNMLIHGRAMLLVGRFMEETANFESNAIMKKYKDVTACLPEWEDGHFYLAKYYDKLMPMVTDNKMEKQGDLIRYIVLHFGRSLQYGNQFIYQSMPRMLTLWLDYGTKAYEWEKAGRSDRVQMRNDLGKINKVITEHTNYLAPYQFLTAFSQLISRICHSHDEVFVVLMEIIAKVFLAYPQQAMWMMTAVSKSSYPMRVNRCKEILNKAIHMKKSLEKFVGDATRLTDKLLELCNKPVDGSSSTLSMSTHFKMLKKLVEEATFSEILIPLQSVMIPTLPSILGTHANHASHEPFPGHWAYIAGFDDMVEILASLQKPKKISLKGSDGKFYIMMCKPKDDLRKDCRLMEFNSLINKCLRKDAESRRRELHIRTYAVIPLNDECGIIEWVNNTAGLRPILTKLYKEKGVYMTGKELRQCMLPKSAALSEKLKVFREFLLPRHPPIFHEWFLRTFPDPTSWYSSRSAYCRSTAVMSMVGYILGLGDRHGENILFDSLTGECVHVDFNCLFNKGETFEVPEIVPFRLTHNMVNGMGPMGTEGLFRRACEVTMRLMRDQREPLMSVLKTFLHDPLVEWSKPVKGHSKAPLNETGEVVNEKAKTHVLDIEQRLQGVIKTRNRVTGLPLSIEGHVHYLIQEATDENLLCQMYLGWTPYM
Sequence of intracellular ATR (Q13535 whole entry): as above
Sequence of intracellular ATR (Q8WXE1 whole entry partner): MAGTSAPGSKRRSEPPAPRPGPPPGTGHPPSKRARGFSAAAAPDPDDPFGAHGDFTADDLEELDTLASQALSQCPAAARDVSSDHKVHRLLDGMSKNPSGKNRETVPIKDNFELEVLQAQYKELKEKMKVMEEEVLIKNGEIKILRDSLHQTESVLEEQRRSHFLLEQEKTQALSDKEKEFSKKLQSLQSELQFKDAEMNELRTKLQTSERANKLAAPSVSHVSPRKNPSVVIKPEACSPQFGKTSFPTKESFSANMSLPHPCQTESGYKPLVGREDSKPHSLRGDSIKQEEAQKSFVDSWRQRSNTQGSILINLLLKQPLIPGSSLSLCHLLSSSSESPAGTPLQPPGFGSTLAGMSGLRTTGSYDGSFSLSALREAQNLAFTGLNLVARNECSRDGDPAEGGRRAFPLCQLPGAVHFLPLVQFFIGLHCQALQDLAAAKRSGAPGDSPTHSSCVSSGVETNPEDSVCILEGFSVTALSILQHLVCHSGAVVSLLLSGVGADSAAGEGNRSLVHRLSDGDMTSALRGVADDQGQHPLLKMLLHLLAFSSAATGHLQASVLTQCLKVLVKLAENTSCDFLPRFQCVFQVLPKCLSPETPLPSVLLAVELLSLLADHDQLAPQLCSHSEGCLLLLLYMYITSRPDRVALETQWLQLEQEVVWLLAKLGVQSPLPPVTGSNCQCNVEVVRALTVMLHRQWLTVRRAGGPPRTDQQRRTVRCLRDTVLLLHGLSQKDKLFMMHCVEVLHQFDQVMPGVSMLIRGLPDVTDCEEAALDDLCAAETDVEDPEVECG

SMILES | Ki (full-length ATR; read-out: ATR Ki) [nM] | also measured
CS(=O)(=O)c1ccc(-c2cnc(N)c(C(=O)Nc3ccccc3)n2)cc1 [Compound I-82, 3-amino-6-(4-(methylsulfonyl)phenyl)-N-phenylpyrazine-2-carboxamide] | 10 to 100 | Ki (full-length ATR; [3]): ≤ 100 nM; IC50 (intracellular ATR): 1000 to 20000 nM; Synergy with Cisplatin (uM) [1]: ++ (Compounds with an IC50 or Ki value >100 nM but ≤1 uM are marked with “++.”); IC50 [2]: 1000 to 20000 nM
CNCc1ccc(-c2nnc(-c3nc(-c4ccc(S(=O)(=O)C(C)C)cc4)cnc3N)o2)cc1 [IA-159, 5-(4-isopropylsulfonylphenyl)-3-[5-[4-(methylaminomethyl)phenyl]-1,3,4-oxadiazol-2-yl]pyrazin-2-amine] | ≤ 10 | Ki (full-length ATR; [3]): ≤ 100 nM; IC50 (intracellular ATR): ≤ 100 nM; Synergy with Cisplatin (uM) [1]: +++ (Compounds with an IC50 or Ki value of ≤100 nM are marked with “+++.”); IC50 [2]: 100 to 1000 nM
CN(C)C(=O)c1ccc(-c2cnc(N)c(-c3nnc(-c4ccccc4)o3)n2)c(C=CF)c1 [IA-148, 4-[5-amino-6-(5-phenyl-1,3,4-oxadiazol-2-yl)pyrazin-2-yl]-3-(2-fluorovinyl)-N,N-dimethyl-benzamide] | 100 to 5000 | –
Nc1ncc(-c2cccnc2)nc1-c1nc2ccccc2[nH]1 [Compound I-121, 3-(1H-benzo[d]imidazol-2-yl)-5-(pyridin-3-yl)pyrazin-2-amine] | 10 to 100 | –
CC(C)S(=O)(=O)c1ccccc1-c1cnc(N)c(-c2nnc(-c3ccccc3)o2)n1 [IA-121, 5-(2-isopropylsulfonylphenyl)-3-(5-phenyl-1,3,4-oxadiazol-2-yl)pyrazin-2-amine] | 100 to 5000 | –
N#Cc1cc(C(=O)N2CCCNCC2)ccc1-c1cnc(N)c(-c2nnc(-c3ccccc3)o2)n1 [IA-20] | ≤ 10 | –
CNCc1ccc(-c2nnc(-c3nc(-c4ccc(S(=O)(=O)C(C)C)cc4)cnc3N)o2)c(F)c1 [IA-130, 3-[5-[2-fluoro-4-(methylaminomethyl)phenyl]-1,3,4-oxadiazol-2-yl]-5-(4-isopropylsulfonylphenyl)pyrazin-2-amine] | ≤ 10 | –
CN(C)C(=O)c1ccc(-c2cnc(N)c(-c3nnc(-c4ccccc4C(F)(F)F)o3)n2)cc1 [IA-233, 4-[5-amino-6-[5-[2-(trifluoromethyl)phenyl]-1,3,4-oxadiazol-2-yl]pyrazin-2-yl]-N,N-dimethyl-benzamide] | 10 to 100 | –
CC(C)S(=O)(=O)c1ccc(-c2cnc(N)c(-c3nnc(NC4CCNCC4)o3)n2)cc1 [IA-318, 5-[3-amino-6-(4-isopropylsulfonylphenyl)pyrazin-2-yl]-N-(4-piperidyl)-1,3,4-oxadiazol-2-amine] | 100 to 5000 | –
C=Cc1ccccc1-c1cnc(N)c(-c2nnc(-c3ccccc3)o2)n1 [IA-253, 3-(5-phenyl-1,3,4-oxadiazol-2-yl)-5-(2-vinylphenyl)pyrazin-2-amine] | 100 to 5000 | –
Cc1ccc2nc(-c3nc(-c4ccc(C(=O)N5CCC(N(C)C)CC5)cc4)cnc3N)[nH]c2c1 [III-2, (4-(5-amino-6-(6-methyl-1H-benzo[d]imidazol-2-yl)pyrazin-2-yl)phenyl)(4-(dimethylamino)piperidin-1-yl)methanone] | 10 to 100 | –

Second part, led by results:

Ki (full-length ATR; read-out: ATR Ki) [nM] | SMILES | also measured
≤ 10 | CC(O)CNCc1ccc(-c2cc(-c3nc(-c4ccc(S(=O)(=O)C(C)C)cc4)cnc3N)on2)cc1 (centres unmarked) [IIA-11, 1-(4-(5-(3-amino-6-(4-(isopropylsulfonyl)phenyl)pyrazin-2-yl)isoxazol-3-yl)benzylamino)propan-2-ol] | Ki (full-length ATR; [3]): ≤ 100 nM; IC50 (intracellular ATR): ≤ 100 nM; Synergy with Cisplatin (uM) [1]: +++ (Compounds with an IC50 or Ki value of ≤100 nM are marked with “+++.”); IC50 [2]: 100 to 1000 nM
100 to 5000 | CC(C)S(=O)(=O)c1ccc(-c2cnc(N)c(-c3nnc(C(=O)NC4CCCCC4N)o3)n2)cc1 (centres unmarked) [IA-81, N-(2-aminocyclohexyl)-5-[3-amino-6-(4-isopropylsulfonylphenyl)pyrazin-2-yl]-1,3,4-oxadiazole-2-carboxamide] | –
10 to 100 | C[C@H](Nc1nnc(-c2nc(-c3ccc(C(=O)N(C)C)cc3)cnc2N)o1)c1ccc(Cl)cc1 [IA-129, 4-[5-amino-6-[5-[[(1 S)-1-(4-chlorophenyl)ethyl]amino]-1,3,4-oxadiazol-2-yl]pyrazin-2-yl]-N,N-dimethyl-benzamide] | –
≤ 10 | COc1ccncc1NC(=O)c1nc(-c2ccc(S(C)(=O)=O)cc2)cnc1N [VII-9] | –
100 to 5000 | CC(C)S(=O)(=O)c1ccc(-c2cnc(N)c(-c3nnc(N4CCCC(CN)C4)o3)n2)cc1 (centres unmarked) [IA-227, 3-[5-[3-(aminomethyl)-1-piperidyl]-1,3,4-oxadiazol-2-yl]-5-(4-isopropylsulfonylphenyl)pyrazin-2-amine] | –
≤ 10 | CNCc1ccc(-c2nnc(-c3nc(-c4ccc(S(=O)(=O)C(C)C)cc4)cnc3N)o2)cc1O [IA-320, 5-[5-[3-amino-6-(4-isopropylsulfonylphenyl)pyrazin-2-yl]-1,3,4-oxadiazol-2-yl]-2-(methylaminomethyl)phenol] | –
≤ 10 | CN(C)C(=O)c1ccc(-c2cnc(N)c(-c3nnc(-c4ccc(CN)cc4)o3)n2)cc1 [IA-234, 4-[5-amino-6-[5-[4-(aminomethyl)phenyl]-1,3,4-oxadiazol-2-yl]pyrazin-2-yl]-N,N-dimethyl-benzamide] | –
10 to 100 | CCSc1ccccc1-c1cnc(N)c(-c2nnc(-c3ccccc3)o2)n1 [IA-184, 5-(2-ethylsulfanylphenyl)-3-(5-phenyl-1,3,4-oxadiazol-2-yl)pyrazin-2-amine] | –
100 to 5000 | CN(C)c1ccccc1-c1cnc(N)c(-c2nnc(-c3ccccc3)o2)n1 [IA-94, 5-(2-(dimethylamino)phenyl)-3-(5-phenyl-1,3,4-oxadiazol-2-yl)pyrazin-2-amine] | –
100 to 5000 | CN(C)C(=O)c1ccc(-c2cnc(N)c(-c3nnc(NC4CCNCC4)o3)n2)cc1 [IA-54] | –
≤ 10 | Cc1ccccc1-c1nnc(-c2nc(-c3ccc(C(=O)N(C)C)cc3)cnc2N)o1 [IA-71, 4-[5-amino-6-[5-(o-tolyl)-1,3,4-oxadiazol-2-yl]pyrazin-2-yl]-N,N-dimethyl-benzamide] | –
≤ 10 | CS(=O)(=O)c1ccc(-c2cnc(N)c(C(=O)Nc3nc4ccccc4[nH]3)n2)cc1 [Compound V-11] | –
10 to 100 | CN(C)CCNc1nccc(-c2cnc(N)c(-c3nnc(-c4ccccc4)o3)n2)c1C#N [IA-209, 4-[5-amino-6-(5-phenyl-1,3,4-oxadiazol-2-yl)pyrazin-2-yl]-2-(2-dimethylaminoethylamino)pyridine-3-carbonitrile] | –
≤ 10 | Cc1ccsc1-c1nnc(-c2nc(-c3ccc(C(=O)N4CCCNCC4)cc3C#N)cnc2N)o1 [IA-181, 2-(5-amino-6-(5-(3-methylthiophen-2-yl)-1,3,4-oxadiazol-2-yl)pyrazin-2-yl)-5-(1,4-diazepane-1-carbonyl)benzonitrile] | –
10 to 100 | COc1ccccc1NC(=O)c1nc(-c2cccc(C(N)=O)c2)cnc1N [Compound I-27, 3-amino-6-(3-carbamoylphenyl)-N-(2-methoxyphenyl)pyrazine-2-carboxamide] | –
